From patent US9902696B2, “1,4-substituted piperidine derivatives” (Cephalon, Inc., priority 2015, dated 2018)
Where a name gives a salt, the structure may show the parent alone. Read-outs that look alike come from different tables or passages of the source.

Target: T1, recombinant human baculovirus-expressed GST-tagged FASN (Homo sapiens, UniProt P49327)
T1 construct: GST
Assay: FASN enzyme activity assay, fluorescence-based detection of CoA with CPM
Format: biochemical
Details: 5 nM FASN, 150 μM NADPH, 10 μM acetyl-CoA, 25 μM malonyl-CoA, 90 minutes incubation
Summary of the method: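 Human GST-tagged FASN, baculovirus-expressed (5 nM), in 50 mM HEPES pH 7.5 with 150 μM NADPH, 10 μM acetyl-CoA, 25 μM malonyl-CoA, 0.5% DMSO; malonyl-CoA-started, 90 min. Released CoA detected with CPM (50 μM dilution), 30 min, fluorescence ex 390/em 530. IC50 from variable-slope sigmoidal fit of % inhibition versus log concentration.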

[1] = read-out: IC50 data for Compounds of Formulae I-V/V(a): Activity
[2] = read-out: IC50 data for Additional Compounds of Formulae I-V(a): Activity

T1 sequence (P49327 whole entry): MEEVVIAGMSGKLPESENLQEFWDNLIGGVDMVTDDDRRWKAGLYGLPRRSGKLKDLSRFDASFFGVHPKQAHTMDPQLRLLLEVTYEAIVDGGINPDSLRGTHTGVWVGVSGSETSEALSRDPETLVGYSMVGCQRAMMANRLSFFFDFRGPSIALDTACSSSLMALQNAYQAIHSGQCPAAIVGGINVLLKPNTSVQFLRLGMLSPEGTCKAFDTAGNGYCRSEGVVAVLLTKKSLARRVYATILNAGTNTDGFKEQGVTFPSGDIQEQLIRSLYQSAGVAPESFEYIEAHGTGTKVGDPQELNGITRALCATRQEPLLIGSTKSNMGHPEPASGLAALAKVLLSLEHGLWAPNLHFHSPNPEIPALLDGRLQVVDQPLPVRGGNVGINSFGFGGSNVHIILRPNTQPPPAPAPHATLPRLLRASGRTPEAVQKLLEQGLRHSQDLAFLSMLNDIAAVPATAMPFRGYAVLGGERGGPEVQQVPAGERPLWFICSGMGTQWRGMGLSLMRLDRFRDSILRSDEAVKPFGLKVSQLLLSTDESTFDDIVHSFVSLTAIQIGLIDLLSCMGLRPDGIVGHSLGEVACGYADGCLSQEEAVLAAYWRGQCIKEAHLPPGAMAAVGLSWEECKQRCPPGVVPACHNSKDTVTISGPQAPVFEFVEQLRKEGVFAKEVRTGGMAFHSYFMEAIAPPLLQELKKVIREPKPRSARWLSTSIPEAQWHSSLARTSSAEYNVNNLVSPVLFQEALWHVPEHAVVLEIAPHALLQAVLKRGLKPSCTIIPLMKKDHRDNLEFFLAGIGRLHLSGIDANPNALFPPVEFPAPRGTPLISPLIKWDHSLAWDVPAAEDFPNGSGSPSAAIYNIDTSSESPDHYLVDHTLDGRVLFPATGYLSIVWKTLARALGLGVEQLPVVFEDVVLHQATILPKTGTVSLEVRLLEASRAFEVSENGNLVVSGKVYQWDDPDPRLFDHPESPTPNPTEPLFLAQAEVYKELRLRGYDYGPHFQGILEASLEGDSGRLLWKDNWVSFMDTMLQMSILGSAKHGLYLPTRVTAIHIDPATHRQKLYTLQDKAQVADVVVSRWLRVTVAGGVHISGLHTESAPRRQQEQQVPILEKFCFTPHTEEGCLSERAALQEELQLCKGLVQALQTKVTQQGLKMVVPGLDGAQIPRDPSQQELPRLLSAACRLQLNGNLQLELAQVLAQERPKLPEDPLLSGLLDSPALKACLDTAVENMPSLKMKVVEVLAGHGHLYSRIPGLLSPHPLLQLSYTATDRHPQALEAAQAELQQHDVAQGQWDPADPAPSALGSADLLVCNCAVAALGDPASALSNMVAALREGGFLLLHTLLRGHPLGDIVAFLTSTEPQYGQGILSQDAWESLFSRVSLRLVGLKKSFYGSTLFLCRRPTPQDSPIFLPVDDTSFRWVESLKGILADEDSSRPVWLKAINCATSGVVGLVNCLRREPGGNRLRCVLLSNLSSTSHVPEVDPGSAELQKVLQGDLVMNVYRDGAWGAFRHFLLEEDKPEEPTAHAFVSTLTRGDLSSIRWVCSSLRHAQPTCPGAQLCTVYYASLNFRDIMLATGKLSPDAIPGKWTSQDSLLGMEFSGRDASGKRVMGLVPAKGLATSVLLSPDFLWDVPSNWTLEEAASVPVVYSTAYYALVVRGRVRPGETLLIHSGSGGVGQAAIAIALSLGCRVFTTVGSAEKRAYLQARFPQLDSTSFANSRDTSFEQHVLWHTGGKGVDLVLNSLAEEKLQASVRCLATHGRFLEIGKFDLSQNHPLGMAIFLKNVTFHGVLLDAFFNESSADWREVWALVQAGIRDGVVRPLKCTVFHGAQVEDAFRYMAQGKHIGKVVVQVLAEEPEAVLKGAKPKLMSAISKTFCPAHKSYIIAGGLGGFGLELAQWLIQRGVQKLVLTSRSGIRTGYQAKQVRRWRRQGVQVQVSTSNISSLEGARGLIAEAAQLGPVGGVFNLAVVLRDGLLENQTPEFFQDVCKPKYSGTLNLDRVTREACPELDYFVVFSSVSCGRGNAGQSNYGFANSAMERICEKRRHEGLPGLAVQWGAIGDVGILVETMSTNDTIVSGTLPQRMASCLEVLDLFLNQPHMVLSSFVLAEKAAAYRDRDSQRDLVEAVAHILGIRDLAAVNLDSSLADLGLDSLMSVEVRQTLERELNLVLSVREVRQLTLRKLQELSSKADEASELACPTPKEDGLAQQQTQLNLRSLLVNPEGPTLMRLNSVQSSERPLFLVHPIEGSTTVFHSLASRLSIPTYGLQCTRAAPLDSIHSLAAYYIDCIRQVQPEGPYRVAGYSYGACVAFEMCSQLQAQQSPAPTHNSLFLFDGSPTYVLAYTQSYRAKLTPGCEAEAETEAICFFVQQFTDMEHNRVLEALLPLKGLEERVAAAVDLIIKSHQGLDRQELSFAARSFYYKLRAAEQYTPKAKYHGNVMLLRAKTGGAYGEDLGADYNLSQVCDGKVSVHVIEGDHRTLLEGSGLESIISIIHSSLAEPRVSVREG

Compound | IC50 [1] [µM] | IC50 [2] [µM]
COc1ccc2cc(-c3ccc(OC4CCN(C(=O)C5CC5)CC4)cc3)cnc2c1 [Example 34, Cyclopropyl-{4-[4-(7-methoxyquinolin-3-yl)-phenoxy]-piperidin-1-yl}-methanone] | 0.001 to 0.099 | –
Cc1c(-c2ccc(OC3CCN(C(N)=O)CC3)cc2)ccc2nccn12 [Example 615, 4-[4-(5-Methylimidazo[1,2-a]pyridin-6-yl)phenoxy]piperidine-1-carboxamide] | – | 1 to 10
N#Cc1ccc(-c2ccc(OC3CCN(C(=O)[C@H]4CCCO4)CC3)cc2)cc1 [Example 244, 4′-[1-((R)-Tetrahydrofuran-2-carbonyl)-piperidin-4-yloxy]-biphenyl-4-carbonitrile] | 0.001 to 0.099 | –
CCOc1c(-c2ccc(OC3CCN(C(=O)C4CC4)CC3)cc2)ccc2cccnc12 [Example 168, Cyclopropyl-{4-[4-(8-ethoxyquinolin-7-yl)-phenoxy]-piperidin-1-yl}-methanone, HCl] | 0.1 to 0.999 | –
CCC(=O)N1CCC(Oc2ccc(-c3ccc4cccnc4c3OCCCN3CCCC3)cc2)CC1 [Example 175, 1-(4-{4-[8-(3-Pyrrolidin-1-yl-propoxy)-quinolin-7-yl]-phenoxy}-piperidin-1-yl)-propan-1-one, HCl] | 1 to 10 | –
CC(C)C(=O)N1CCC(S(=O)(=O)c2ccc(-c3ccc4cccnc4c3)cc2)CC1 [Example 512, 2-Methyl-1-[4-(4-quinolin-7-yl-benzenesulfonyl)-piperidin-1-yl]-propan-1-one] | 1 to 10 | –
O=C(C1CC1)N1CCC(Oc2ccc(-c3ccnc(-c4ccccc4)c3)cc2)CC1 [Example 403, Cyclopropyl-{4-[4-(2-phenylpyridin-4-yl)-phenoxy]-piperidin-1-yl}-methanone, TFA salt] | 1 to 10 | –
CCC(=O)N1CCC(Oc2ccc(-c3ccc(N4CCOCC4)nc3)cc2)CC1 [Example 386, 1-{4-[4-(6-Morpholin-4-yl-pyridin-3-yl)-phenoxy]-piperidin-1-yl}-propan-1-one] | 1 to 10 | –
CCC(=O)N1CCC(Oc2ccc(-c3ccc4cc(Cl)cnc4c3)cc2)CC1 [Example 266, 1-{4-[4-(3-Chloroquinolin-7-yl)-phenoxy]-piperidin-1-yl}-propan-1-one, TFA salt] | 0.1 to 0.999 | –
Cc1c(-c2ccc(OC3CCN(C(=O)C4CC4(C)C)CC3)cc2)ccc2cccnc12 (stereo not drawn) [Example 322, (2,2-Dimethylcyclopropyl)-{4-[4-(8-methyl-quinolin-7-yl)-phenoxy]-piperidin-1-yl}-methanone] | 0.001 to 0.099 | –
Cc1c(-c2ccc(OC3CCN(C(=O)NCC4CC4)CC3)cc2)ccc2nccn12 [Example 595, N-(Cyclopropylmethyl)-4-[4-(5-methylimidazo[1,2-a]pyridin-6-yl)-phenoxy]piperidine-1-carboxamide] | – | 0.1 to 0.999
CC(=O)CC(=O)N1CCC(Oc2ccc(-c3cnc4ccccc4c3)cc2)CC1 [Example 242, 1-[4-(4-Quinolin-3-yl-phenoxy)-piperidin-1-yl]-butane-1,3-dione] | 1 to 10 | –
COC(=O)N1CCC(Oc2ccc(-c3cnc4ccccc4c3)c(C)c2)CC1 [Example 208, 4-(3-Methyl-4-quinolin-3-yl-phenoxy)-piperidine-1-carboxylic acid methyl ester] | 1 to 10 | –
O=C(C1CC1)N1CCC(Oc2ccc(-c3ccnc(Nc4ccccc4)c3)cc2)CC1 [Example 405, Cyclopropyl-{4-[4-(2-phenylaminopyridin-4-yl)-phenoxy]-piperidin-1-yl}-methanone] | 1 to 10 | –
CN(C)c1nccc2cc(-c3ccc(OC4CCN(C(=O)[C@H]5CCCO5)CC4)cc3)ccc12 [Example 453, {4-[4-(1-Dimethylaminoisoquinolin-6-yl)-phenoxy]-piperidin-1-yl}-(R)-tetrahyrofuran-2-yl methananone, HCl] | 0.1 to 0.999 | –
O=C(C1CC1)N1CCC(Oc2ccc(-c3ccc(Oc4ccccc4)cc3)cc2)CC1 [Example 509, Cyclopropyl-[4-(4′-phenoxybiphenyl-4-yloxy)-piperidin-1-yl]-methanone] | 1 to 10 | –
CC(=O)N1CCC(Oc2ccc(-c3cnc4ccccc4c3)cc2)CC1 [Example 112, 1-[4-(4-Quinolin-3-yl-phenoxy)-piperidin-1-yl]-ethanone, HCl] | 0.1 to 0.999 | –
O=C([C@H]1CCCO1)N1CCC(Oc2ccc(-c3ccc4cccnc4c3OCCN3CCCC3)cc2)CC1 [Example 183] | 1 to 10 | –
O=C([C@H]1CCCO1)N1CCC(Oc2ccc(-c3cnc4cc(F)ccc4c3)cc2)CC1 [Example 479, {4-[4-(7-Fluoroquinolin-3-yl)-phenoxy]-piperidin-1-yl}-(R)-tetrahydro-furan-2-yl-methanone] | 0.001 to 0.099 | –
CCC(=O)N1CCC(Oc2ccc(-c3cnc4cc(OC)c(F)cc4c3)cc2)CC1 [Example 444, 1-{4-[4-(6-Fluoro-7-methoxyquinolin-3-yl)-phenoxy]-piperidin-1-yl}-propan-1-one] | 1 to 10 | –

Compound | IC50 [1] [µM] | IC50 [2] [µM]
CCC(=O)N1CCC(Sc2ccc(-c3ccc4cnccc4c3)cc2)CC1 [Example 517, 1-(4-((4-(Isoquinolin-6-yl)phenyl)thio)piperidin-1-yl)propan-1-one, HCl] | 0.001 to 0.099 | –
N#Cc1cnc2cc(-c3ccc(OC4CCN(C(=O)[C@H]5CCCO5)CC4)cc3)ccc2c1 [Example 278, 7-{4-[1-((R)-Tetrahydrofuran-2-carbonyl)-piperidin-4-yloxy]-phenyl}-quinoline-3-carbonitrile] | 0.001 to 0.099 | –
CCC(=O)N1CC[C@@H](Oc2ccc(-c3ccc4cccnc4c3)cc2)C1 [Example 344, (R)-1-(3-(4-(Quinolin-7-yl)phenoxy)pyrrolidin-1-yl)propan-1-one, HCl] | 0.1 to 0.999 | –
O=C([C@H]1CCCO1)N1CCC(Oc2ccc(-c3ccc4cncn4c3)cc2)CC1 [Example 298, [4-(4-Imidazo[1,5-a]pyridin-6-yl-phenoxy)-piperidin-1-yl]-(R)-tetrahydro-furan-2-yl-methanone] | 0.001 to 0.099 | –
Cc1c(-c2ccc(OC3CCN(C(=O)NOCC(C)C)CC3)cc2)ccc2nccn12 [Example 601, N-Isobutoxy-4-[4-(5-methylimidazo[1,2-a]pyridin-6-yl)phenoxy]piperidine-1-carboxamide] | – | 0.001 to 0.099
Cc1cc(C)c(C(=O)N2CCC(Oc3ccc(-c4cnc5ccccc5c4)cc3)CC2)o1 [Example 122, (3,5-Dimethylfuran-2-yl)-[4-(4-quinolin-3-yl-phenoxy)-piperidin-1-yl]-methanone, HCl] | 1 to 10 | –
O=C(C1CC1)N1CCC(Oc2ccc(-c3ccc4cccnc4c3OCCN3CCCC3)cc2)CC1 [Example 174, Cyclopropyl-(4-{4-[8-(2-pyrrolidin-1-yl-ethoxy)-quinolin-7-yl]-phenoxy}-piperidin-1-yl)-methanone, HCl] | 1 to 10 | –
Cc1c(-c2ccc(OC3CCN(C(=O)C4CC4)CC3)c(F)c2)cnc2ccccc12 [Example 229, Cyclopropyl-{4-[2-fluoro-4-(4-methylquinolin-3-yl)-phenoxy]-piperidin-1-yl}-methanone] | 0.1 to 0.999 | –
O=C(C1CC1)N1CCC(Oc2ccc(-c3cc4ccccc4cn3)cc2)CC1 [Example 44, Cyclopropyl-[4-(4-isoquinolin-3-yl-phenoxy)-piperidin-1-yl]-methanone] | 0.001 to 0.099 | –
CCNC(=O)N1CCC(Oc2ccc(-c3ccc4ccc(O)nc4c3C)cc2)CC1 [Example 529, N-Ethyl-4-[4-(2-hydroxy-8-methyl-7-quinolyl)phenoxy]piperidine-1-carboxamide] | – | 1 to 10
O=C(C1CC1)N1CCC(Oc2ccc(-c3cnc4ccccc4c3)nc2)CC1 [Example 142, Cyclopropyl-[4-(6-quinolin-3-yl-pyridin-3-yloxy)-piperidin-1-yl]-methanone, 2HCl] | 1 to 10 | –
CCN1CCN(C(=O)N2CCC(Oc3ccc(-c4ccc5cccnc5c4C)cc3)CC2)CC1 [Example 535, (4-Ethyl lpiperazin-1-yl)-[4-[4-(8-methyl-7-quinolyl)phenoxy]-1-piperidyl]methanone tosylate] | – | 1 to 10
O=C(c1ccco1)N1CCC(Oc2ccc(-c3cnc4ccccc4c3)cc2)CC1 [Example 111, HCl] | 1 to 10 | –
CCC(=O)N1CCC(Oc2ccc(-c3ccc(Oc4ccccc4)nc3)cc2)CC1 [Example 389, 1-{4-[4-(6-Phenoxy-pyridin-3-yl)-phenoxy]-piperidin-1-yl}-propan-1-one] | 1 to 10 | –
O=C(C1CC1)N1CCC(Oc2ccc(-c3cccc(Oc4ccccc4)c3)cc2)CC1 [Example 511, Cyclopropyl-[4-(3′-phenoxybiphenyl-4-yloxy)-piperidin-1-yl]-methanone] | 1 to 10 | –
CCC(=O)N1CCC(Oc2ccc(-c3ccc(OCc4ccccc4)cc3F)cc2)CC1 [Example 504, 1-[4-(4′-Benzyloxy-2′-fluoro-biphenyl-4-yloxy)-piperidin-1-yl]-propan-1-one] | 1 to 10 | –
CCCONC(=O)N1CCC(Oc2ccc(-c3ccc4nccn4c3Cl)cc2)CC1 [Example 576, 4-[4-(5-Chloroimidazo[1,2-a]pyridin-6-yl)phenoxy]-N-propoxy-piperidine-1-carboxamide] | – | 1 to 10
Cc1c(-c2ccc(OC3CCN(C(=O)C4(CO)CC4)CC3)cc2)ccc2nccn12 [Example 304, (1-Hydroxymethylcyclopropyl)-{4-[4-(5-methyl-imidazo[1,2-a]pyridin-6-yl)-phenoxy]-piperidin-1-yl}-methanone] | 1 to 10 | –
O=C(C1CC1)N1CCC(Oc2ccc(-c3ccc4cccnc4c3OCCN3CCOCC3)cc2)CC1 [Example 172, Cyclopropyl-(4-{4-[8-(2-morpholin-4-yl-ethoxy)-quinolin-7-yl]-phenoxyl}-piperidin-1-yl)-methanone, 2HCl] | 1 to 10 | –
